In patent US12168763B2, “Microorganisms and methods for reducing bacterial contamination” (Melio Peptide Systems Inc., priority 2020, dated 2024):
Entries after “also recorded” stand apart in the source; their conditions may differ. Where no end group is shown, it is not given here.

Key:
[1] = system: L. delbrueckii CCUG 34222T; assay: Soft-agar overlay assay of S. cerevisiae M2 strain expressing pediocin PA-1 variants; conditions: S. cerevisiae M2 transformants; compared to wild-type pediocin PA-1
[2] = system: P. pentosaceus NCCB 31016; assay: as above; conditions: S. cerevisiae M2 transformants; compared to wild-type pediocin PA-1
W. confusa CCUG30943 = assay: Soft-agar overlay screen of peptide-expressing yeast (BY4742)
L. lactis NCCB 26066 = assay: as above
E. faecium NCCB 86023 = assay: as above
[3] = system: L. delbrueckii CCUG 34222; assay: as above
L. fermentum NCCB 46038 [4] = assay: as above
[5] = system: P. pentosaceus NCCB 31016; assay: as above; conditions: soft-agar overlay, peptide-expressing yeast
L. fermentum NCCB 46038 [6] = assay: Soft-agar overlay assay of S. cerevisiae BY4742 secreting persulcatusin variants from pHVXU plasmids; conditions: for Growth inhibition zones of L. fermentum: FIG. 7, BY4742 with pHVXU plasmids, 30° C., 1 day; for Increase in Activity: random mutagenesis clones of persulcatusin, increase of growth inhibition zones
W. confusa CCUG30113 = assay: Soft-agar overlay screen of peptide-expressing yeast (BY4742)
L. reuteri CCUG 32624 = assay: as above
Lactobacillus amylovorus = assay: Soft-agar overlay screen of peptide-expressing yeast, other lactic acid bacteria; format: cell-based; conditions: sometimes weak
Lactobacillus casei = assay: as above; format: cell-based; conditions: sometimes weak

Substance	Growth inhibition zone (halo) of L. delbrueckii [1]	Growth inhibition zone (halo) of P. pentosaceus [2]	Inhibition, W. confusa CCUG30943 (W. confusa CCUG30943)	Inhibition, L. lactis NCCB 26066 (L. lactis NCCB 26066)	Inhibition, E. faecium NCCB 86023 (E. faecium NCCB 86023)	Inhibition, L. delbrueckii CCUG 34222 [3]	Inhibition, L. fermentum NCCB 46038 (L. fermentum NCCB 46038 [4])	Inhibition, P. pentosaceus NCCB 31016 [5]	Inhibition, W. confusa CCUG30113 (W. confusa CCUG30113)	Inhibition, L. reuteri CCUG 32624 (L. reuteri CCUG 32624)	other results
Engineered pediocin PA-1 with [S15A] (KYYGNGVTCGKHSCAVDWGKATTCIINNGAMAWATGGHQGNHKC; ends and bridges not checked; cysteine pairing not given here) [pediocin PA-1 S15A]	Growth inhibition zones of L. delbrueckii were observable	Growth inhibition zones of P. pentosaceus were observable									
Wild-type persulcatusin [Wild-type persulcatusin [Ixodes persulcatus]]			−	−	−	−	+	−	+	−	Growth inhibition zones of L. fermentum (L. fermentum NCCB 46038 [6]): Growth inhibition zones of L. fermentum are observable
Engineered pediocin PA-1 with [pediocin PA-1 T22A, Engineered pediocin PA-1 with [T22A]]		Growth inhibition zones of P. pentosaceus were observable									
Engineered pediocin PA-1 with [pediocin PA-1 K1A/S15A, Engineered pediocin PA-1 with [K1A/S15A]]	Growth inhibition zones of P. pentosaceus and L. delbrueckii were observable	Growth inhibition zones of P. pentosaceus and L. delbrueckii were observable									
Engineered pediocin PA-1 with [pediocin PA-1 K1A/T22A, Engineered pediocin PA-1 with [K1A/T22A]]		largest halo									
Engineered persulcatusin with [Mutation S7-192-1, Engineered persulcatusin with [F6L/G9D/R13S/H14Q]]			+	−	−	−	+	−	+	+	Antibacterial activity against Lactobacillus amylovorus (Lactobacillus amylovorus): showed some antibacterial activity; Growth inhibition zones of L. fermentum (L. fermentum NCCB 46038 [6]): significantly bigger zones; Increase in Activity (L. fermentum NCCB 46038 [6]): ++++; Antibacterial activity against Lactobacillus casei (Lactobacillus casei): showed some antibacterial activity
Engineered pediocin PA-1 with [pediocin PA-1 K1A/K20A, Engineered pediocin PA-1 with [K1A/K20A]]	Growth inhibition zones of P. pentosaceus and L. delbrueckii were observable	Growth inhibition zones of P. pentosaceus and L. delbrueckii were observable									
Enterocin A			−	+	−	+	−	+	−	−	
Coagulin A			−	+	+	+	−	+	−	−	
Engineered pediocin PA-1 with [pediocin PA-1 G19A, Engineered pediocin PA-1 with [G19A]]		Growth inhibition zones of P. pentosaceus were observable									
Bactofencin A			−	+	+	+	+	+	−	−	
Ubericin A			−	+	−	+	−	+	−	−	
Leucocin C			−	+	+	+	−	+	−	−	
Engineered pediocin PA-1 with [pediocin PA-1 K1T, Engineered pediocin PA-1 with [K1T]]	slightly bigger halo than wild-type pediocin PA-1; also recorded: Growth inhibition zones were observable										
Engineered pediocin PA-1 with [pediocin PA-1 K1A/S13A, Engineered pediocin PA-1 with [K1A/S13A]]	Growth inhibition zones of P. pentosaceus and L. delbrueckii were observable	Growth inhibition zones of P. pentosaceus and L. delbrueckii were observable									
Engineered pediocin PA-1 with [pediocin PA-1 K1A/G19A, Engineered pediocin PA-1 with [K1A/G19A]]	Growth inhibition zones of P. pentosaceus and L. delbrueckii were observable	Growth inhibition zones of P. pentosaceus and L. delbrueckii were observable									
Hiracin JM79			−	−	+	−	−	−	−	−	
Engineered pediocin PA-1 with [pediocin PA-1 K1A, Engineered pediocin PA-1 with [K1A]]	largest halo	largest halo									
Engineered pediocin PA-1 with [S13A] (KYYGNGVTCGKHACSVDWGKATTCIINNGAMAWATGGHQGNHKC; ends and bridges not checked; cysteine pairing not given here) [pediocin PA-1 S13A]	Growth inhibition zones of L. delbrueckii were observable	Growth inhibition zones of P. pentosaceus were observable									
Engineered pediocin PA-1 with [K20A] (KYYGNGVTCGKHSCSVDWGAATTCIINNGAMAWATGGHQGNHKC; ends and bridges not checked; cysteine pairing not given here) [pediocin PA-1 K20A]	Growth inhibition zones of L. delbrueckii were observable	Growth inhibition zones of P. pentosaceus were observable									
Engineered persulcatusin with [Mutation S7-140-10, Engineered persulcatusin with [R13S/R21G]]											Increase in Activity (L. fermentum NCCB 46038 [6]): +
Engineered persulcatusin with [Mutation S7-140-3, Engineered persulcatusin with [R20S/R21G]]											Increase in Activity (L. fermentum NCCB 46038 [6]): +
Q8A: persulcatusin (SEQ ID NO: 1) alanine-scan variant Q8A (GFGCPFNAGACHRHCRSIGRRGGYCAGLFKQTCTCYSR; listed as Ixodes persulcatus) [Mutation Q8A]											Change in activity (L. fermentum NCCB 46038 [6]; alanine scanning of persulcatusin, relative to wild-type, soft-agar overlay): −
Engineered persulcatusin with [Mutation S7-192-26, Engineered persulcatusin with [F6L/G9D/H14Q]]											Increase in Activity (L. fermentum NCCB 46038 [6]): +++
Engineered persulcatusin with [Mutation S7-140-7, Engineered persulcatusin with [R16G/F29V]]											Increase in Activity (L. fermentum NCCB 46038 [6]): +
